Experimental data from article PMC3764917 (Journal of medicinal chemistry, 2012).
Counter-ions that a name gives are not always drawn.

What was measured:
human COX-2 = target: T1, human COX-2 (Homo sapiens, UniProt P35354); assay: COX activity, commercial enzyme immunoassay kit
T1 sequence (P35354 18-604): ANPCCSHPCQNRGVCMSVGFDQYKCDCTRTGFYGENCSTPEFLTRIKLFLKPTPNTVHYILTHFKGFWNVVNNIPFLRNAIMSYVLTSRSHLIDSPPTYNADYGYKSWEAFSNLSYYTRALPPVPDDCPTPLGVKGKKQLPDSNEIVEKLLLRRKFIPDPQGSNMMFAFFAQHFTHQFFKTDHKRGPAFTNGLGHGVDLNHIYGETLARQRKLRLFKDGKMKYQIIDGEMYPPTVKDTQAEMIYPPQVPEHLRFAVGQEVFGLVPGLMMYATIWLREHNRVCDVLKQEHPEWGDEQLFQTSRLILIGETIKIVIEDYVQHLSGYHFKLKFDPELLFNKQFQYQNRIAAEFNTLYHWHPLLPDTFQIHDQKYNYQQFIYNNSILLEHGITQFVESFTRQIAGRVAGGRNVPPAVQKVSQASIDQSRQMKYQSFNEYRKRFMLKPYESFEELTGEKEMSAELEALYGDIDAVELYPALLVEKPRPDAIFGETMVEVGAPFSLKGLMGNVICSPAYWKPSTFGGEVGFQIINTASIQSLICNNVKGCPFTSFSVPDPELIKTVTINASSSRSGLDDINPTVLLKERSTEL

ovine COX-1 = target: T2, ovine COX-1 (Ovis aries, UniProt P05979); assay: COX activity, commercial enzyme immunoassay kit
T2 sequence (P05979 25-600): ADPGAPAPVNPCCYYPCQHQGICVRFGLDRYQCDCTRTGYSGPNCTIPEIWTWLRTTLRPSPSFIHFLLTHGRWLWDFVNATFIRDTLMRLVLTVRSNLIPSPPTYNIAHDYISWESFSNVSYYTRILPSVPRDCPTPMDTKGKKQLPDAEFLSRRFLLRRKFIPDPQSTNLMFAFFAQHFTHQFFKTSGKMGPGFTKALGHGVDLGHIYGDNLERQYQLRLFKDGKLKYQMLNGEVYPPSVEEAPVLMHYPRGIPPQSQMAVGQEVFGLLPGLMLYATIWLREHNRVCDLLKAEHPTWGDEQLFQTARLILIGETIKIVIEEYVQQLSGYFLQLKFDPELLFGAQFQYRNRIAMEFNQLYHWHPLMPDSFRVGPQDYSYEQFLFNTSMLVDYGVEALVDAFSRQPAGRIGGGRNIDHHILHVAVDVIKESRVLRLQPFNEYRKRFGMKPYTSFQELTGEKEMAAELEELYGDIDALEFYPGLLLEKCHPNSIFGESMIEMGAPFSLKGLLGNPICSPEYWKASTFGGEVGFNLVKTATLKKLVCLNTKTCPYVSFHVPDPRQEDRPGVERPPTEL

FAAH = target: T3, FAAH (Rattus norvegicus, UniProt P97612); assay: FAAH activity: [3H]anandamide hydrolysis by total rat brain homogenates; assay type: biochemical
T3 sequence (P97612 1-579): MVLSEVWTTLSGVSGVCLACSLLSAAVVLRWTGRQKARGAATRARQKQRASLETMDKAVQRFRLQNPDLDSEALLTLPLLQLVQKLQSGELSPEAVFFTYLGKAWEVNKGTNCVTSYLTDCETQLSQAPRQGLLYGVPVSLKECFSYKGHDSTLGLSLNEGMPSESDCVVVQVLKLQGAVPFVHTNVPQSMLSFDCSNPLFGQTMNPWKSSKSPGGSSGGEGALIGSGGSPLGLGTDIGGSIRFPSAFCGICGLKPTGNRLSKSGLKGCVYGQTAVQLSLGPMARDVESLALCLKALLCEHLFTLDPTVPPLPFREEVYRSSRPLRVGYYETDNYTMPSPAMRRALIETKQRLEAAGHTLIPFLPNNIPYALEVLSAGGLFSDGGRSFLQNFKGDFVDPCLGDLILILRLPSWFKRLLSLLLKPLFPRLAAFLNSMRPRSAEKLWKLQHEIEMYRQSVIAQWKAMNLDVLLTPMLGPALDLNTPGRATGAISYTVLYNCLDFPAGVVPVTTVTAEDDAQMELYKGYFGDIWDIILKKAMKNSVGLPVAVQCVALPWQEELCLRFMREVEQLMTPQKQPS

COX-2 = details: oxygen electrode assay, arachidonic acid as substrate; cited from earlier work
[1] = humans; cited from earlier work

SMILES | COX-2 inhibition, result in words (human COX-2) | COX-1 inhibition, result in words (ovine COX-1) | other results
COc1ccc(C(=O)n2c3ccc(Cl)cc3c3ccc(C(C)C(=O)O)cc32)cc1 (centres unmarked) [Compound 15e, 2-(6-chloro-9-(4-methoxybenzoyl)-9H-carbazol-2-yl)propanoic acid] | did not inhibit | did not inhibit | 
CC(C(=O)O)c1ccc2c3cc(Cl)ccc3n(Cc3ccccc3)c2c1 (centres unmarked) [Compound 6b, 2-(9-benzyl-6-chloro-9H-carbazol-2-yl)propanoic acid] |  |  | increase in FAAH potency compared to 1 (FAAH; ratio of FAAH IC50 values versus compound 1): 3 fold
CC(C(=O)O)c1ccc2c3cc(Cl)ccc3n(C(=O)c3c[nH]cn3)c2c1 (centres unmarked) [Compound 15j, 2-(6-chloro-9-(1H-imidazole-4-carbonyl)-9H-carbazol-2-yl)propanoic acid hydrochloride] | no relevant inhibition |  | IC50 (FAAH): 6 µM
CC(C)Cc1ccc(C(C)C(=O)O)cc1 (centres unmarked) [ibuprofen, reference compound] |  |  | FAAH inhibition, result in words (FAAH): very weak
CC(=O)n1c2ccc(Cl)cc2c2ccc(C(C)C(=O)O)cc21 (centres unmarked) [Compound 15a, 2-(9-acetyl-6-chloro-9H-carbazol-2-yl)propanoic acid] | did not show any inhibitory potency | did not show any inhibitory potency | FAAH inhibition, result in words (FAAH): did not show any inhibitory potency
Cc1cccnc1NC(=O)C(C)c1ccc(CC(C)C)cc1 (centres unmarked) [ibu-am5, N-(3-methylpyridin-2-yl)-2-(4-isobutylphenyl)-propionamide] |  |  | COX-2 inhibition, result in words (COX-2): inactive
CC(C(=O)O)c1ccc2c(c1)[nH]c1ccccc12 (centres unmarked) [Compound 2, 2-(9H-carbazol-2-yl)propanoic acid] |  |  | IC50 (FAAH): 5 µM
COc1ccccc1Cn1c2ccc(Cl)cc2c2ccc(C(C)C(=O)O)cc21 (centres unmarked) [Compound 6g, 2-(6-chloro-9-(2-methoxybenzyl)-9H-carbazol-2-yl)propanoic acid] |  |  | FAAH activity at 30 μM, result in words (FAAH; 30 μM): no activity
CC(C(=O)O)c1ccc2c3cc(Cl)ccc3n(C(=O)c3cscn3)c2c1 (centres unmarked) [Compound 15k, 2-(6-chloro-9-(thiazole-4-carbonyl)-9H-carbazol-2-yl)propanoic acid] | detrimental | detrimental | FAAH inhibition, result in words (FAAH): detrimental
CC(C(=O)Nc1ccccc1)c1ccc2c(c1)[nH]c1ccc(Cl)cc12 (centres unmarked) [Compound 4b, 2-(6-chloro-9H-carbazol-2-yl)-N-phenylpropanamide] | lack of activity | lack of activity | 
CCCCCCOC(=O)n1c2ccc(Cl)cc2c2ccc(C(C)C(=O)O)cc21 (centres unmarked) [Compound 12, 2-(6-chloro-9-((hexyloxy)carbonyl)-9H-carbazol-2-yl)propanoic acid] |  |  | weaker potency against FAAH compared to 10a (FAAH; ratio of FAAH IC50 values versus 10a): 10 fold
CNC(=O)n1c2ccc(Cl)cc2c2ccc(C(C)C(=O)O)cc21 (centres unmarked) [Compound 10b, 2-[6-chloro-9-(methylcarbamoyl)carbazol-2-yl]propanoic acid] |  |  | FAAH inhibition, result in words (FAAH): no inhibition
CC(C(=O)O)c1ccc2c(c1)[nH]c1ccc(Cl)cc12 (centres unmarked) [Compound 1, carprofen] |  |  | ulcerogenic side effects compared to other NSAIDs [1]: reduced ulcerogenic side effects
CC(C(=O)O)c1ccc2c3cc(Cl)ccc3n(C(=O)c3cccc(Cl)c3)c2c1 (centres unmarked) [Compound 15f, 2-(6-chloro-9-(3-chlorobenzoyl)-9H-carbazol-2-yl)propanoic acid] | lost | lost | 
CCCCNC(=O)n1c2ccc(Cl)cc2c2ccc(C(C)C(=O)O)cc21 (centres unmarked) [Compound 10c, 2-(9-(butylcarbamoyl)-6-chloro-9H-carbazol-2-yl)propanoic acid] |  |  | FAAH inhibition, result in words (FAAH): no inhibition
COC(=O)C(C)c1ccc2c(c1)[nH]c1ccc(Cl)cc12 (centres unmarked) [Compound 3, Methyl 2-(6-chloro-9H-carbazol-2-yl)propanoate] | lack of activity | lack of activity | 
CCCCCCNC(=O)n1c2ccc(Cl)cc2c2ccc(C(C)C(=O)O)cc21 (centres unmarked) [Compound 10a, 2-(6-chloro-9-(hexylcarbamoyl)-9H-carbazol-2-yl)propanoic acid] |  |  | IC50 (FAAH): 3 µM
CC(C(=O)O)c1ccc2c3cc(Cl)ccc3n(C(=O)c3ccccc3Cl)c2c1 (centres unmarked) [Compound 15g, 2-(6-chloro-9-(2-chlorobenzoyl)-9H-carbazol-2-yl)propanoic acid] | lost | lost | 
CC(C(=O)O)c1ccc2c3cc(Cl)ccc3n(C(=O)c3ccc(Cl)c(Cl)c3)c2c1 (centres unmarked) [Compound 15h, 2-(6-chloro-9-(3,4-dichlorobenzoyl)-9H-carbazol-2-yl)propanoic acid] | total loss of activity | total loss of activity | FAAH inhibition, result in words (FAAH): total loss of activity
CC(C(=O)NCCO)c1ccc2c(c1)[nH]c1ccc(Cl)cc12 (centres unmarked) [Compound 4a, 2-(6-chloro-9H-carbazol-2-yl)-N-(2-hydroxyethyl)propanamide] | lack of activity | lack of activity | 
CC(C(=O)O)c1ccc2c3cc(Cl)ccc3n(C(=O)c3ccc(F)cc3)c2c1 (centres unmarked) [Compound 15d, 2-(6-chloro-9-(4-fluorobenzoyl)-9H-carbazol-2-yl)propanoic acid] | did not inhibit | did not inhibit | 
